Laboratory results reported in ChEMBL document CHEMBL3779768, “Simple N(ε)-thioacetyl-lysine-containing cyclic peptides exhibiting highly potent sirtuin inhibition” (Bioorg Med Chem Lett, 2016).
*1 amine or outer side, *2 acyl side, *3 side chain or, on linkers, in order; H or OH if unused. Where a SMILES comes first, the peptide text is derived from it. Bridges are numbered along the chain shown (N, C = ends). [ ]: non-standard residue; d: D form. Suberoyl(Gly)2 = O=C(CCCCCCC(=O)NCC(=O)[*:2])NCC(=O)[*:1]; Lys(Thioacetyl) = CC(=S)NCCCC[C@H](N)C(=O)O; Suberoyl = O=C(CCCCCCC(=O)[*:2])[*:1]; Adipoyl = O=C(CCCCC(=O)[*:2])[*:1]; Suc = O=C(CCC(=O)[*:2])[*:1]

Assays:
[1] = target: T1, NAD-dependent protein deacetylase sirtuin-1 (Homo sapiens, UniProt Q96EB6); assay: Inhibition of human SIRT1 (133 to 747 amino acid residues) assessed as deacetylation using Z-Lys(Acetyl)-AMC as substrate measured after 4 hrs by fluorescence based microplate reader method in presence of 500 uM beta-NAD+
T1 sequence (Q96EB6 whole entry): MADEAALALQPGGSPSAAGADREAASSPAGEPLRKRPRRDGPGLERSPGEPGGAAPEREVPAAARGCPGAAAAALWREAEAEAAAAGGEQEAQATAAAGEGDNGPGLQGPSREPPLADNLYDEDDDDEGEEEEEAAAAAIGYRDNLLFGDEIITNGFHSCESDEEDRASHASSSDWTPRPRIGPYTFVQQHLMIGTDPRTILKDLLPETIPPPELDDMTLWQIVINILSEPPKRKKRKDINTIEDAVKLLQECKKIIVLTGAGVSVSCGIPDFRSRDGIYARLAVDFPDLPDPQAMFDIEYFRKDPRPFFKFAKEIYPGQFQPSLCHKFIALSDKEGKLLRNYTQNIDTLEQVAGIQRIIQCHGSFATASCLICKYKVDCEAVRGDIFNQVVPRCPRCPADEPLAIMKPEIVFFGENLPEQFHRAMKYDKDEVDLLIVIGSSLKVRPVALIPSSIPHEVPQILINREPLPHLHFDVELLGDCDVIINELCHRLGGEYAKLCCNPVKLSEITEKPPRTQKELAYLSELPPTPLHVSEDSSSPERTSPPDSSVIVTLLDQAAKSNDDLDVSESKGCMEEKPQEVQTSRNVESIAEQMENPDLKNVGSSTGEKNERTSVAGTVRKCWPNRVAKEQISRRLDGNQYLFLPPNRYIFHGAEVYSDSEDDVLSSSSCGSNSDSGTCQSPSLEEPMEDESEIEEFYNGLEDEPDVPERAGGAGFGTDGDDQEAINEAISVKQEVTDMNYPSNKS

[2] = target: T2, NAD-dependent protein deacetylase sirtuin-3, mitochondrial (Homo sapiens, UniProt Q9NTG7); assay: Inhibition of human SIRT3 expressed in Escherichia coli BL21 (DE3) assessed as deacetylation using Z-Lys(Acetyl)-AMC as substrate measured after 4 hrs by fluorescence based microplate reader method in presence of 500 uM beta NAD+
T2 sequence (Q9NTG7 whole entry): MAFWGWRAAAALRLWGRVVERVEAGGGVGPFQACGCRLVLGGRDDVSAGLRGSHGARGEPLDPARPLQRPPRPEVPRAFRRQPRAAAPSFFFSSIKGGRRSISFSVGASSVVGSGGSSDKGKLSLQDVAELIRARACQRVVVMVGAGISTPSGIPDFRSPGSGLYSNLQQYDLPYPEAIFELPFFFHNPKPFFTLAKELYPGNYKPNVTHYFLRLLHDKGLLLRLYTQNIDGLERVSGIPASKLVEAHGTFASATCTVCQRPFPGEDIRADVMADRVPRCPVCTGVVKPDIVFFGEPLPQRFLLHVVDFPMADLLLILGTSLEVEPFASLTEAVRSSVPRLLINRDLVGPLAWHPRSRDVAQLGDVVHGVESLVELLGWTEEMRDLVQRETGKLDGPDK

[3] = target: T1, NAD-dependent protein deacetylase sirtuin-1; assay: Inhibition of SIRT1 (unknown origin)
[4] = target: T3, NAD-dependent protein deacetylase sirtuin-2 (Homo sapiens, UniProt Q8IXJ6); assay: Inhibition of human SIRT2
T3 sequence (Q8IXJ6 whole entry): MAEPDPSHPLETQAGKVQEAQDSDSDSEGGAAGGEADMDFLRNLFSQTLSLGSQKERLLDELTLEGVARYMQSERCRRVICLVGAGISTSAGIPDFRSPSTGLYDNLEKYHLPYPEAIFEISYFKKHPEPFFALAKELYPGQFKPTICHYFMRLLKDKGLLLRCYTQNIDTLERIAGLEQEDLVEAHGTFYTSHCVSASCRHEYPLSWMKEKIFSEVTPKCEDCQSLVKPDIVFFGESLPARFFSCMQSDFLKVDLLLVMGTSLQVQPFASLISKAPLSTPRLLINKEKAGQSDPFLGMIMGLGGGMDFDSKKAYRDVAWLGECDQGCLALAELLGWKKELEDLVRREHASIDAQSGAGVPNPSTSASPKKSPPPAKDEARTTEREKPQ

[5] = target: T2, NAD-dependent protein deacetylase sirtuin-3, mitochondrial; assay: Inhibition of SIRT3 (unknown origin)
[6] = target: T1, NAD-dependent protein deacetylase sirtuin-1; assay: Inhibition of recombinant GST-tagged human SIRT1 using 0.3 mM H2N-HK-[N(epsilon)-acetyl-lysine]-LM-COOH as substrate measured after 10 mins HPLC analysis in presence of 0.5 mM beta-NAD+
[7] = target: T3, NAD-dependent protein deacetylase sirtuin-2; assay: Inhibition of recombinant His6 tagged human SIRT2 using 0.39 mM H2N-HK-[N(epsilon)-acetyl-lysine]-LM-COOH as substrate measured after 12 mins HPLC analysis in presence of 0.5 mM beta-NAD+
[8] = target: T2, NAD-dependent protein deacetylase sirtuin-3, mitochondrial; assay: Inhibition of recombinant His6 tagged human SIRT3 using 0.105 mM H2N-HK-[N(epsilon)-acetyl-lysine]-LM-COOH as substrate measured after 10 mins HPLC analysis in presence of 3.5 mM beta-NAD+

Row | Structure (SMILES) | IC50 [6] | IC50 [7] | IC50 [8] | other results
1 | Cc1cc(C)nc(SCC(=O)Nc2ncc(Cc3cccc4ccccc34)s2)n1 |  |  |  | IC50 [1]: > 140000 nM; IC50 [2]: > 140000 nM
2 | CC[C@H](C)[C@@H]1NC(=O)[C@H](CCCNC(=N)N)NC(=O)[C@H](Cc2ccccc2)NC(=O)[C@H](CC(N)=O)NC(=O)[C@@H](CO)NC(=O)[C@H](Cc2ccc(O)cc2)NC(=O)CSC[C@@H](C(N)=O)NC(=O)[C@H](CO)NC(=O)[C@H](CO)NC(=O)[C@H](CC(N)=O)NC(=O)[C@H](CO)NC(=O)[C@H](Cc2ccc(O)cc2)NC(=O)[C@H](CCCNC(=N)N)NC(=O)[C@H](CCCCNC(=O)C(F)(F)F)NC1=O |  |  |  | IC50 [3]: 47 nM; IC50 [4]: 3.2 nM; IC50 [5]: 480 nM
3 | CSCC[C@H](NC(=O)[C@@H]1CCCCNC(=O)CNC(=O)CCC(=O)NCC(=O)NCCCC[C@H](NC(C)=O)C(=O)N[C@@H](CCCCN)C(=O)N[C@@H](CCCCNC(C)=S)C(=O)N1)C(N)=O | 56.8 nM | 58.9 nM | 103 nM | 
4 | CSCC[C@H](NC(=O)[C@@H]1CCCCNC(=O)CNC(=O)CCCCC(=O)NCC(=O)NCCCC[C@H](NC(C)=O)C(=O)N[C@@H](CCCCN)C(=O)N[C@@H](CCCCNC(C)=S)C(=O)N1)C(N)=O | 38.7 nM | 53.1 nM | 52.5 nM | 
5 | CSCC[C@H](NC(=O)[C@H](CC(C)C)NC(=O)[C@H](CCCCNC(C)=S)NC(=O)[C@H](CCCCN)NC(=O)[C@H](Cc1c[nH]cn1)NC(C)=O)C(N)=O (Ac-HK[Lys(Thioacetyl)]LM-NH2) | 165 nM | 332 nM |  | 
6 | CSCC[C@H](NC(=O)[C@@H]1CCCCNC(=O)CCCCC(=O)NCCCC[C@H](NC(C)=O)C(=O)N[C@@H](CCCCN)C(=O)N[C@@H](CCCCNC(C)=S)C(=O)N1)C(N)=O (Ac-KK[Lys(Thioacetyl)]KM-NH2; linker 1-4 via Adipoyl) | 63.5 nM | 134 nM |  | 
7 | CSCC[C@H](NC(=O)[C@@H]1CCCCNC(=O)CNC(=O)CCCCCCC(=O)NCC(=O)NCCCC[C@H](NC(C)=O)C(=O)N[C@@H](CCCCN)C(=O)N[C@@H](CCCCNC(C)=S)C(=O)N1)C(N)=O (Ac-KK[Lys(Thioacetyl)]KM-NH2; linker 1-4 via Suberoyl(Gly)2) | 2.3 nM | 144 nM | 42.9 nM | 
8 | CSCC[C@H](NC(=O)[C@@H]1CCCCNC(=O)CCCCCCC(=O)NCCCC[C@H](NC(C)=O)C(=O)N[C@@H](CCCCN)C(=O)N[C@@H](CCCCNC(C)=S)C(=O)N1)C(N)=O (Ac-KK[Lys(Thioacetyl)]KM-NH2; linker 1-4 via Suberoyl) | 37.1 nM | 404 nM |  | 
9 | CSCC[C@H](NC(=O)[C@@H]1CCCCNC(=O)CCC(=O)NCCCC[C@H](NC(C)=O)C(=O)N[C@@H](CCCCN)C(=O)N[C@@H](CCCCNC(C)=S)C(=O)N1)C(N)=O (Ac-KK[Lys(Thioacetyl)]KM-NH2; linker 1-4 via Suc) | 75.2 nM | 10.1 nM |  | 
